# According to patent publication US10221160B2, “Metalloenzyme inhibitor compounds” (Mycovia Pharmaceuticals, Inc., priority 2012, dated 2019):
# Tested on: C. albicans
# Experiment: Minimum Inhibitory Concentration (MIC), CLSI M27-A2
# Assay type: cell-based
# Conditions: Candida albicans, 48 h, about 50% growth reduction, approximately 48 h at 35 °C, read-out: Candida MIC
# Method: A. Minimum Inhibitory Concentration (MIC) Compounds were assessed for their ability to inhibit the growth of common strains of fungus, C. albicans using a standardized procedure (CLSI M27-A2). Stock solutions of the test compounds and standards were prepared in DMSO at 1,600 μg/mL (C. albicans). Eleven, serial, one-half dilutions of compounds were prepared in 96-well plates in RPMI+MOPS. The assay concentration ranges were 8-0.001 μg/mL (C. albicans). Cell suspensions of C. albicans were prepared and added to each well at concentrations of approximately 3.7×10^3 colony-forming-units per milliliter (cfu/mL). All testing was in duplicate. The inoculated plates were incubated for approximately 48 h at 35±1° C. At the completion of incubation the wells of each plate were evaluated visually for the presence of fungal growth. […] For QC purposes C. krusei isolate ATCC 6258 (4.0×10^3 cfu/mL) was included in the VOR assay.
row,SMILES,MIC [µg/mL]
1,"N#Cc1ccc(-c2ccc(C(F)(F)C(O)(Cn3cnnn3)c3ccc(F)cc3F)nc2)cc1 (stereo not drawn) [Example 1, 4-(6-(2-(2,4-Difluorophenyl)-1,1-difluoro-2-hydroxy-3-(1H-tetrazol-1-yl)propyl)pyridin-3-yl)benzonitrile]",≤ 0.016

# Same assay, conditions: Candida albicans, rating scale, read-out: Candida MIC Rating
row,SMILES,MIC [µg/mL]
1,"N#Cc1ccc(-c2ccc(C(F)(F)C(O)(Cn3cnnn3)c3ccc(F)cc3F)nc2)cc1 (stereo not drawn) [Example 1, 4-(6-(2-(2,4-Difluorophenyl)-1,1-difluoro-2-hydroxy-3-(1H-tetrazol-1-yl)propyl)pyridin-3-yl)benzonitrile]",< 0.5
2,"N#Cc1cccc(-c2ccc(C(F)(F)C(O)(Cn3cnnn3)c3ccc(F)cc3F)nc2)c1 (stereo not drawn) [Example 3, 3-(6-(2-(2,4-Difluorophenyl)-1,1-difluoro-2-hydroxy-3-(1H-tetrazol-1-yl)propyl)pyridin-3-yl)benzonitrile]",< 0.5
3,"CC(C)Oc1ccc(-c2ccc(C(F)(F)C(O)(Cn3cnnn3)c3ccc(F)cc3F)nc2)cc1 (stereo not drawn) [Example 4, 2-(2,4-Difluorophenyl)-1,1-difluoro-1-(5-(4-isopropoxyphenyl)pyridin-2-yl)-3-(1H-tetrazol-1-yl)propan-2-ol]",< 0.5
4,"OC(Cn1cnnn1)(c1ccc(F)cc1F)C(F)(F)c1ccc(-c2ccc(F)cc2)cn1 (stereo not drawn) [Example 5, 2-(2,4-Difluorophenyl)-1,1-difluoro-1-(5-(4-fluorophenyl)pyridin-2-yl)-3-(1H-tetrazol-1-yl)propan-2-ol]",< 0.5
5,"OC(Cn1cnnn1)(c1ccc(F)cc1F)C(F)(F)c1ccc(-c2cccc(OC(F)(F)F)c2)cn1 (stereo not drawn) [Example 6, 2-(2,4-Difluorophenyl)-1,1-difluoro-3-(1H-tetrazol-1-yl)-1-(5-(3-(trifluoromethoxy)phenyl)pyridin-2-yl)propan-2-ol]",< 0.5
6,"OC(Cn1cnnn1)(c1ccc(F)cc1F)C(F)(F)c1ccc(-c2ccc(OC(F)(F)F)cc2)cn1 (stereo not drawn) [Example 7, 2-(2,4-Difluorophenyl)-1,1-difluoro-3-(1H-tetrazol-1-yl)-1-(5-(4-(trifluoromethoxy)phenyl)pyridin-2-yl) propan-2-ol]",< 0.5
7,"OC(Cn1cnnn1)(c1ccc(F)cc1F)C(F)(F)c1ccc(-c2cccc(Cl)c2)cn1 (stereo not drawn) [Example 8, 1-(5-(3-Chlorophenyl)pyridin-2-yl)-2-(2,4-difluorophenyl)-1,1-difluoro-3-(1H-tetrazol-1-yl)propan-2-ol]",< 0.5
8,"OC(Cn1cnnn1)(c1ccc(F)cc1F)C(F)(F)c1ccc(-c2ccc(Cl)cc2)cn1 (stereo not drawn) [Example 9, 1-(5-(4-Chlorophenyl)pyridin-2-yl)-2-(2,4-difluorophenyl)-1,1-difluoro-3-(1H-tetrazol-1-yl)propan-2-ol]",< 0.5
9,"OC(Cn1cnnn1)(c1ccc(F)cc1F)C(F)(F)c1ccc(-c2cc(F)ccc2F)cn1 (stereo not drawn) [Example 10, 2-(2,4-Difluorophenyl)-1-(5-(2,5-difluorophenyl)pyridin-2-yl)-1,1-difluoro-3-(1H-tetrazol-1-yl)propan-2-ol]",< 0.5
10,"OC(Cn1cncn1)(c1ccc(F)cc1F)C(F)(F)c1ccc(-c2ccc(F)cc2)cn1 (stereo not drawn) [Example 16, 2-(2,4-Difluorophenyl)-1,1-difluoro-1-(5-(4-fluorophenyl)pyridin-2-yl)-3-(1H-1,2,4-triazol-1-yl)propan-2-ol]",< 0.5
11,"OC(Cn1cncn1)(c1ccc(F)cc1F)C(F)(F)c1ccc(-c2ccc(OC(F)(F)F)cc2)cn1 (stereo not drawn) [Example 18, 2-(2,4-Difluorophenyl)-1,1-difluoro-3-(1H-1,2,4-triazol-1-yl)-1-(5-(4-(trifluoromethoxy)phenyl)pyridin-2-yl) propan-2-ol]",< 0.5
12,"OC(Cn1ncnn1)(c1ccc(F)cc1F)C(F)(F)c1ccc(-c2ccc(OCC(F)(F)F)cc2)cn1 (stereo not drawn) [Example 20, 2-(2,4-Difluorophenyl)-1,1-difluoro-3-(2H-tetrazol-1-yl)-1-(5-(4-(2,2,2-trifluoroethoxy)phenyl)pyridin-2-yl)propan-2-ol]",> 4
13,OC(Cn1ncnn1)(c1ccc(F)cc1F)C(F)(F)c1ccc(-c2cccc(F)c2)cn1 (stereo not drawn) [Example 21],1.5 to 4
14,OC(Cn1ncnn1)(c1ccc(F)cc1F)C(F)(F)c1ccc(-c2ccc(C(F)(F)F)cc2)cn1 (stereo not drawn) [Example 22],1.5 to 4
15,"Oc1ccc(-c2ccc(C(F)(F)C(O)(Cn3cnnn3)c3ccc(F)cc3F)nc2)cc1 (stereo not drawn) [Example 23, 4-(6-(2-(2,4-Difluorophenyl)-1,1-difluoro-2-hydroxy-3-(1H-tetrazol-1-yl)propyl)pyridin-3-yl)phenol]",< 0.5
16,"CC(C)c1cccc(-c2ccc(C(F)(F)C(O)(Cn3cnnn3)c3ccc(F)cc3F)nc2)c1 (stereo not drawn) [Example 24, 2-(2,4-Difluorophenyl)-1,1-difluoro-1-(5-(3-isopropylphenyl)pyridin-2-yl)-3-(1H-tetrazol-1-yl)propan-2-ol]",< 0.5
17,"OC(Cn1cnnn1)(c1ccc(F)cc1F)C(F)(F)c1ccc(-c2ccc(F)c(F)c2)cn1 (stereo not drawn) [Example 25, 2-(2,4-Difluorophenyl)-1-(5-(3,4-difluorophenyl)pyridin-2-yl)-1,1-difluoro-3-(1H-tetrazol-1-yl)propan-2-ol]",< 0.5
18,"OC(Cn1cnnn1)(c1ccc(F)cc1F)C(F)(F)c1ccc(-c2cccc(OC(F)F)c2)cn1 (stereo not drawn) [Example 26, 1-(5-(3-(Difluoromethoxy)phenyl)pyridin-2-yl)-2-(2,4-difluorophenyl)-1,1-difluoro-3-(1H-tetrazol-1-yl)propan-2-ol]",< 0.5
19,"OC(Cn1cnnn1)(c1ccc(F)cc1F)C(F)(F)c1ccc(-c2ccc(SC(F)(F)F)cc2)cn1 (stereo not drawn) [Example 27, 2-(2,4-Difluorophenyl)-1,1-difluoro-3-(1H-tetrazol-1-yl)-1-(5-(4-((trifluoromethyl)thio)phenyl)pyridin-2-yl)propan-2-ol]",< 0.5
20,"CC(C)(C)Oc1ccc(-c2ccc(C(F)(F)C(O)(Cn3cnnn3)c3ccc(F)cc3F)nc2)cc1 (stereo not drawn) [Example 28, 1-(5-(4-(tert-Butoxy)phenyl)pyridin-2-yl)-2-(2,4-difluorophenyl)-1,1-difluoro-3-(1H-tetrazol-1-yl)propan-2-ol]",< 0.5
21,"OC(Cn1cnnn1)(c1ccc(F)cc1F)C(F)(F)c1ccc(-c2ccc(Cl)c(F)c2)cn1 (stereo not drawn) [Example 29, 1-(5-(4-Chloro-3-fluorophenyl)pyridin-2-yl)-2-(2,4-difluorophenyl)-1,1-difluoro-3-(1H-tetrazol-1-yl)propan-2-ol]",< 0.5
22,"Oc1cccc(-c2ccc(C(F)(F)C(O)(Cn3cnnn3)c3ccc(F)cc3F)nc2)c1 (stereo not drawn) [Example 30, 3-(6-(2-(2,4-Difluorophenyl)-1,1-difluoro-2-hydroxy-3-(1H-tetrazol-1-yl)propyl)pyridin-3-yl)phenol]",< 0.5
23,"OC(Cn1cnnn1)(c1ccc(F)cc1F)C(F)(F)c1ccc(-c2cccc(C(F)(F)F)c2)cn1 (stereo not drawn) [Example 31, 2-(2,4-Difluorophenyl)-1,1-difluoro-3-(1H-tetrazol-1-yl)-1-(5-(3-(trifluoromethyl)phenyl)pyridin-2-yl)propan-2-ol]",< 0.5
24,"O=[N+]([O-])c1ccc(-c2ccc(C(F)(F)C(O)(Cn3cnnn3)c3ccc(F)cc3F)nc2)cc1 (stereo not drawn) [Example 32, 2-(2,4-Difluorophenyl)-1,1-difluoro-1-(5-(4-nitrophenyl)pyridin-2-yl)-3-(1H-tetrazol-1-yl)propan-2-ol]",< 0.5
25,"O=C(c1ccc(-c2ccc(C(F)(F)C(O)(Cn3cnnn3)c3ccc(F)cc3F)nc2)cc1)C(F)(F)F (stereo not drawn) [Example 33, 1-(4-(6-(2-(2,4-Difluorophenyl)-1,1-difluoro-2-hydroxy-3-(1H-tetrazol-1-yl)propyl)pyridin-3-yl)phenyl)-2,2,2-trifluoroethanone]",< 0.5
26,"OC(Cn1cnnn1)(c1ccc(Cl)cc1F)C(F)(F)c1ccc(-c2ccc(OC(F)(F)F)cc2)cn1 (stereo not drawn) [Example 34, 2-(4-Chloro-2-fluorophenyl)-1,1-difluoro-3-(1H-tetrazol-1-yl)-1-(5-(4-(trifluoromethoxy)phenyl)pyridin-2-yl)propan-2-ol]",< 0.5
27,"OC(Cn1cnnn1)(c1ccc(F)cc1F)C(F)(F)c1ccc(-c2ccccc2)cn1 (stereo not drawn) [Example 35, 2-(2,4-Difluorophenyl)-1,1-difluoro-1-(5-phenylpyridin-2-yl)-3-(1H-tetrazol-1-yl)propan-2-ol]",< 0.5
28,"OC(Cn1cnnn1)(c1ccc(F)cc1F)C(F)(F)c1ccc(-c2ccc(N3CCOCC3)cc2)cn1 (stereo not drawn) [Example 36, 2-(2,4-Difluorophenyl)-1,1-difluoro-1-(5-(4-morpholinophenyl)pyridin-2-yl)-3-(1H-tetrazol-1-yl)propan-2-ol]",< 0.5
29,"O=C(Nc1ccc(-c2ccc(C(F)(F)C(O)(Cn3cnnn3)c3ccc(F)cc3F)nc2)cc1)C(F)(F)F (stereo not drawn) [Example 37, N-(4-(6-(2-(2,4-Difluorophenyl)-1,1-difluoro-2-hydroxy-3-(1H-tetrazol-1-yl)propyl)pyridin-3-yl)phenyl)-2,2,2-trifluoroacetamide]",< 0.5

# Same assay, conditions: Candida albicans, read-out: Candida MIC Rating
row,SMILES,MIC [µg/mL]
1,"OC(Cn1cnnn1)(c1ccc(F)cc1F)C(F)(F)c1ccc(-c2ccc(OCC(F)(F)C(F)(F)F)cc2)cn1 (stereo not drawn) [Example 12, 2-(2,4-Difluorophenyl)-1,1-difluoro-1-(5-(4-(2,2,3,3,3-pentafluoropropoxy)phenyl)pyridin-2-yl)-3-(1H-tetrazol-1-yl)propan-2-ol]",< 0.5
2,"OC(Cc1cc[nH]n1)(c1ccc(F)cc1F)C(F)(F)c1ccc(-c2ccc(OC(F)(F)F)cc2)cn1 (stereo not drawn) [Example 15, 2-(2,4-Difluorophenyl)-1,1-difluoro-3-(1H-pyrazol-3-yl)-1-(5-(4-(trifluoromethoxy)phenyl)pyridin-2-yl)propan-2-ol]",< 0.5

# Same assay, conditions: rating scale
row,SMILES,Candida MIC Rating
1,"OC(Cn1cnnn1)(c1ccc(F)cc1F)C(F)(F)c1ccc(-c2ccc(OCC(F)(F)F)cc2)cn1 (stereo not drawn) [Example 11, 2-(2,4-Difluorophenyl)-1,1-difluoro-3-(1H-tetrazol-1-yl)-1-(5-(4-(2,2,2-trifluoroethoxy)phenyl)pyridin-2-yl)propan-2-ol]",A (≤0.5)
